Assay results reported in ChEMBL document CHEMBL1201862, “PubChem BioAssay data set” (2004).
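In this assay, cells in 96-well plates receive the compound at five concentrations for 48 hours. Endpoints are linearly interpolated between the surrounding concentrations. The concentration for 50% growth inhibition is given as GI50.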 Calls of active or inactive are those of the source. Rule as the data show it: active = GI50 up to about 1.1 µM and inactive = higher.

Tests used:
Assay in all cases: NCI anticancer screen, dose series, 48 h
A549 = test system: A549
HCC 2998 = test system: HCC 2998
786-0 = test system: 786-0
HCT-116 = test system: HCT-116
CAKI-1 = test system: CAKI-1
SK-OV-3 = test system: SK-OV-3
MCF7 = test system: MCF7
OVCAR-8 = test system: OVCAR-8
RPMI-8226 = test system: RPMI-8226
UACC-257 = test system: UACC-257
SW-620 = test system: SW-620
M14 = test system: M14
ACHN = test system: ACHN
HCT-15 = test system: HCT-15
KM12 = test system: KM12
U-251 = test system: U-251
BT-549 = test system: BT-549
OVCAR-4 = test system: OVCAR-4
SR = test system: SR
NCI-H460 = test system: NCI-H460
HT-29 = test system: HT-29
COLO 205 = test system: COLO 205
HL-60 = test system: HL-60
SF-268 = test system: SF-268
UO-31 = test system: UO-31
Malme-3M = test system: Malme-3M
EKVX = test system: EKVX
PC-3 = test system: PC-3
IGROV-1 = test system: IGROV-1
OVCAR-3 = test system: OVCAR-3
SF-295 = test system: SF-295
MDA-MB-231 = test system: MDA-MB-231
SK-MEL-28 = test system: SK-MEL-28
SF-539 = test system: SF-539
CCRF-CEM = test system: CCRF-CEM
SNB-19 = test system: SNB-19
NCI-H23 = test system: NCI-H23
OVCAR-5 = test system: OVCAR-5
LOX IMVI = test system: LOX IMVI
NCI/ADR-RES = test system: NCI/ADR-RES
HOP-92 = test system: HOP-92
HOP-62 = test system: HOP-62
SK-MEL-2 = test system: SK-MEL-2
SNB-75 = test system: SNB-75
TK-10 = test system: TK-10
Hs-578T = test system: Hs-578T
DU-145 = test system: DU-145
MDA-MB-435 = test system: MDA-MB-435
MOLT-4 = test system: MOLT-4
K562 = test system: K562
NCI-H522 = test system: NCI-H522
MDA-N = test system: MDA-N
SN12C = test system: SN12C
UACC-62 = test system: UACC-62
NCI-H226 = test system: NCI-H226
SK-MEL-5 = test system: SK-MEL-5
T47D = test system: T47D
RXF 393 = test system: RXF 393
A498 = test system: A498

O=c1c2cc(S(=O)(=O)Nc3ccc(Cl)cc3Cl)ccc2ncn1NS(=O)(=O)c1cccc2ccccc12
GI50 (A549): 36.9 µM (inactive)
GI50 (HCC 2998): 20 µM (inactive)
GI50 (786-0): 42 µM (inactive)
GI50 (HCT-116): 30.5 µM (inactive)
GI50 (CAKI-1): 15.7 µM (inactive)
GI50 (SK-OV-3): 66.8 µM (inactive)
GI50 (MCF7): 20.7 µM (inactive)
GI50 (OVCAR-8): 52.2 µM (inactive)
GI50 (RPMI-8226): 21.1 µM (inactive)
GI50 (UACC-257): 77.6 µM (inactive)
GI50 (SW-620): 71.4 µM (inactive)
GI50 (M14): 93.8 µM (inactive)
GI50 (ACHN): 47.5 µM (inactive)
GI50 (HCT-15): 34.1 µM
GI50 (KM12): 22.4 µM (inactive)
GI50 (U-251): 58.2 µM (inactive)
GI50 (BT-549): 16.5 µM (inactive)
GI50 (OVCAR-4): 41.7 µM (inactive)
GI50 (SR): 22.9 µM (inactive)
GI50 (NCI-H460): 36.6 µM (inactive)
GI50 (HT-29): 32 µM (inactive)
GI50 (COLO 205): 43.7 µM (inactive)
GI50 (HL-60): 14.5 µM (inactive)
GI50 (SF-268): 30.3 µM (inactive)
GI50 (UO-31): 14.1 µM (inactive)
GI50 (Malme-3M): > 100 µM (inactive)
GI50 (EKVX): 14.7 µM (inactive)
GI50 (PC-3): 23.7 µM (inactive)
GI50 (IGROV-1): 20.7 µM (inactive)
GI50 (OVCAR-3): 33.9 µM (inactive)
GI50 (SF-295): 37.4 µM (inactive)
GI50 (MDA-MB-231): 20.4 µM (inactive)
GI50 (SK-MEL-28): 99.5 µM (inactive)
GI50 (SF-539): 38.3 µM (inactive)
GI50 (CCRF-CEM): 12.7 µM (inactive)
GI50 (SNB-19): 21.6 µM (inactive)
GI50 (NCI-H23): 40.4 µM (inactive)
GI50 (OVCAR-5): 61.5 µM (inactive)
GI50 (LOX IMVI): 15.5 µM (inactive)
GI50 (NCI/ADR-RES): 31.3 µM (inactive)
GI50 (HOP-92): 16.2 µM (inactive)
GI50 (HOP-62): 41.3 µM (inactive)
GI50 (SK-MEL-2): 38.1 µM (inactive)
GI50 (SNB-75): 60.5 µM (inactive)
GI50 (TK-10): 85.7 µM (inactive)
GI50 (Hs-578T): 21.5 µM (inactive)
GI50 (DU-145): 36.5 µM (inactive)
GI50 (MDA-MB-435): 58.9 µM (inactive)
GI50 (MOLT-4): 18.2 µM (inactive)
GI50 (K562): 63.5 µM (inactive)
GI50 (NCI-H522): 24 µM (inactive)
GI50 (MDA-N): 48 µM (inactive)
GI50 (SN12C): 91.6 µM (inactive)
GI50 (UACC-62): 28.9 µM (inactive)
GI50 (NCI-H226): 18.6 µM (inactive)

CSCCC(NC(=O)OCc1ccccc1)P(=O)(O)c1ccccc1 (stereo not drawn)
GI50 (A549): > 100 µM (inactive)
GI50 (HCC 2998): > 100 µM (inactive)
GI50 (HCT-116): > 100 µM (inactive)
GI50 (CAKI-1): > 100 µM (inactive)
GI50 (SK-OV-3): > 100 µM (inactive)
GI50 (MCF7): > 100 µM (inactive)
GI50 (OVCAR-8): > 100 µM (inactive)
GI50 (RPMI-8226): > 100 µM (inactive)
GI50 (UACC-257): > 100 µM (inactive)
GI50 (SW-620): > 100 µM (inactive)
GI50 (M14): > 100 µM (inactive)
GI50 (ACHN): > 100 µM (inactive)
GI50 (HCT-15): > 100 µM
GI50 (U-251): > 100 µM (inactive)
GI50 (OVCAR-4): > 100 µM (inactive)
GI50 (SR): > 100 µM (inactive)
GI50 (NCI-H460): > 100 µM (inactive)
GI50 (HT-29): > 100 µM (inactive)
GI50 (COLO 205): > 100 µM (inactive)
GI50 (HL-60): > 100 µM (inactive)
GI50 (UO-31): > 100 µM (inactive)
GI50 (PC-3): > 100 µM (inactive)
GI50 (IGROV-1): > 100 µM (inactive)
GI50 (OVCAR-3): > 100 µM (inactive)
GI50 (SF-295): > 100 µM (inactive)
GI50 (MDA-MB-231): > 100 µM (inactive)
GI50 (SK-MEL-28): > 100 µM (inactive)
GI50 (CCRF-CEM): > 100 µM (inactive)
GI50 (SNB-19): > 100 µM (inactive)
GI50 (NCI-H23): > 100 µM (inactive)
GI50 (OVCAR-5): > 100 µM (inactive)
GI50 (LOX IMVI): > 100 µM (inactive)
GI50 (NCI/ADR-RES): > 100 µM (inactive)
GI50 (HOP-92): > 100 µM (inactive)
GI50 (HOP-62): > 100 µM (inactive)
GI50 (SK-MEL-5): > 100 µM (inactive)
GI50 (SK-MEL-2): > 100 µM (inactive)
GI50 (SNB-75): > 100 µM (inactive)
GI50 (TK-10): > 100 µM (inactive)
GI50 (Hs-578T): > 100 µM (inactive)
GI50 (DU-145): > 100 µM (inactive)
GI50 (MDA-MB-435): > 100 µM (inactive)
GI50 (MOLT-4): > 100 µM (inactive)
GI50 (K562): > 100 µM (inactive)
GI50 (NCI-H522): > 100 µM (inactive)
GI50 (MDA-N): > 100 µM (inactive)
GI50 (SN12C): > 100 µM (inactive)
GI50 (T47D): > 100 µM (inactive)
GI50 (NCI-H226): > 100 µM (inactive)

O=C1CCCC[C@H]1C(O)CC1CC(=O)N(c2ccccc2)C(=O)C1 (stereo partly drawn)
GI50 (A549): > 100 µM (inactive)
GI50 (HCC 2998): > 100 µM (inactive)
GI50 (786-0): > 100 µM (inactive)
GI50 (HCT-116): > 100 µM (inactive)
GI50 (CAKI-1): > 100 µM (inactive)
GI50 (MCF7): > 100 µM (inactive)
GI50 (OVCAR-8): > 100 µM (inactive)
GI50 (RPMI-8226): > 100 µM (inactive)
GI50 (UACC-257): > 100 µM (inactive)
GI50 (SW-620): > 100 µM (inactive)
GI50 (M14): > 100 µM (inactive)
GI50 (ACHN): > 100 µM (inactive)
GI50 (HCT-15): > 100 µM
GI50 (KM12): > 100 µM (inactive)
GI50 (U-251): > 100 µM (inactive)
GI50 (BT-549): > 100 µM (inactive)
GI50 (OVCAR-4): > 100 µM (inactive)
GI50 (SR): > 100 µM (inactive)
GI50 (NCI-H460): > 100 µM (inactive)
GI50 (HT-29): > 100 µM (inactive)
GI50 (HL-60): > 100 µM (inactive)
GI50 (SF-268): > 100 µM (inactive)
GI50 (UO-31): > 100 µM (inactive)
GI50 (RXF 393): > 100 µM (inactive)
GI50 (A498): > 100 µM (inactive)
GI50 (Malme-3M): > 100 µM (inactive)
GI50 (PC-3): > 100 µM (inactive)
GI50 (IGROV-1): > 100 µM (inactive)
GI50 (OVCAR-3): > 100 µM (inactive)
GI50 (SF-295): > 100 µM (inactive)
GI50 (MDA-MB-231): > 100 µM (inactive)
GI50 (SK-MEL-28): > 100 µM (inactive)
GI50 (SF-539): > 100 µM (inactive)
GI50 (CCRF-CEM): > 100 µM (inactive)
GI50 (SNB-19): > 100 µM (inactive)
GI50 (NCI-H23): > 100 µM (inactive)
GI50 (OVCAR-5): > 100 µM (inactive)
GI50 (LOX IMVI): > 100 µM (inactive)
GI50 (NCI/ADR-RES): > 100 µM (inactive)
GI50 (HOP-92): > 100 µM (inactive)
GI50 (HOP-62): > 100 µM (inactive)
GI50 (SK-MEL-5): > 100 µM (inactive)
GI50 (SNB-75): > 100 µM (inactive)
GI50 (TK-10): > 100 µM (inactive)
GI50 (Hs-578T): > 100 µM (inactive)
GI50 (DU-145): > 100 µM (inactive)
GI50 (MDA-MB-435): > 100 µM (inactive)
GI50 (MOLT-4): > 100 µM (inactive)
GI50 (K562): > 100 µM (inactive)
GI50 (NCI-H522): > 100 µM (inactive)
GI50 (MDA-N): > 100 µM (inactive)
GI50 (SN12C): > 100 µM (inactive)
GI50 (UACC-62): > 100 µM (inactive)
GI50 (NCI-H226): > 100 µM (inactive)
